Each structure is given as a SMILES string. pIC50: −log10 of the molar value. A value given as a limit tells only on which side of the number the result lay.

As a reminder, the pIC50 is the IC50 on a negative log10 scale, so that one unit is a factor of ten. Higher therefore signals a small IC50.

T1 sequence (P16473 21-764): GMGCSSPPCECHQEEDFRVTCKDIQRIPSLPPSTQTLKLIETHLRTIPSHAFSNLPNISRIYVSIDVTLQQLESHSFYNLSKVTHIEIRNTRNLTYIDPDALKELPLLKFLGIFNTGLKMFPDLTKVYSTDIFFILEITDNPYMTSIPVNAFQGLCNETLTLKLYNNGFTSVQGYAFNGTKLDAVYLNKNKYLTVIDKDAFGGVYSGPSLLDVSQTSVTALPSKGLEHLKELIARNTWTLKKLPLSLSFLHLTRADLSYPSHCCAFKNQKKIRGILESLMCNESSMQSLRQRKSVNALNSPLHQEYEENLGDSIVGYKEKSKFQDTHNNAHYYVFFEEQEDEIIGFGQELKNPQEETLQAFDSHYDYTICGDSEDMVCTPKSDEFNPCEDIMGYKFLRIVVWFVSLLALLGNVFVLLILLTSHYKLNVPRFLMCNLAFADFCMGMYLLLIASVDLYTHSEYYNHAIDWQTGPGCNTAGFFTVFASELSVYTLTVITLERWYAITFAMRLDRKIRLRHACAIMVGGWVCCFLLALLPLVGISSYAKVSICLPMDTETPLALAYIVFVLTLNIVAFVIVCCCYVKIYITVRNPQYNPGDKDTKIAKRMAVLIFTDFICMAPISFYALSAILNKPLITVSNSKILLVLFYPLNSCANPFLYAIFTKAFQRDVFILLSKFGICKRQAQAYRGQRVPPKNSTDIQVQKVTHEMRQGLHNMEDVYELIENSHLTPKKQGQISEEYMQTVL

Tested on in one experiment: not given
Experiment: not given
Conditions: mice in which a TSH-releasing hormone (TRH) has been administered; cited from earlier work.
As for `COc1ccc(C2Nc3ccccc3C(=O)N2Cc2ccco2)cc1COc1c(C)cc(NC(C)=O)cc1C` (stereo not drawn) [NCGC00242364], the “blood T4 concentration lowering effect” value is “blood T4 concentration lowering effect”.

Still in this experiment, the particulars now being: mice in which a thyroid stimulating antibody M22 has been administered; cited from earlier work.
On to `COc1ccc(C2Nc3ccccc3C(=O)N2Cc2ccco2)cc1COc1c(C)cc(NC(C)=O)cc1C` (stereo not drawn) [NCGC00242364], for which the “blood T4 concentration lowering effect” value is on record as “blood T4 concentration lowering effect”.

Another experiment addresses T1, human TSHR (Homo sapiens, UniProt P16473).
T1 construct: expressed in transfected cells
Put plainly: Antagonist activity using TSH-induced cAMP production in human TSHR-stably expressing CHO cells. The experiment is classed as cell-based. To be noted: human TSH final concentration of 50 ng/mL, cAMP production rate. As for the experimental part:
Measurement of antagonist activity using TSH-induced cAMP production in human TSHR-stably expressing CHO cells as an indicator
The gene sequence (reference number NM_000369.2) of human TSHR was inserted into the multiple cloning site of pcDNA3.1(+). The prepared plasmid vector was introduced into CHO cells using a lipofection method to establish human TSHR-stably expressing CHO cells. The obtained cells were seeded at 5 x 10^4 cells/well in a 96-well poly-D-lysine-coated plate, and cultured in an F12 culture medium containing 10% FBS, 400 µg/mL of G418, 50 U/mL of penicillin and 50 µg/mL of streptomycin under conditions of 37°C and 5% CO2 for 1 day. The culture medium was removed, and the cells were then washed twice with 100 µL of an assay buffer (Hanks' Balanced Salt Solution containing 20 mM HEPES and 1 mM IBMX) per well. 30 µL of an assay buffer containing a test compound was added to the well, and incubation was performed at room temperature for 15 minutes. Then, 30 µL of an assay buffer containing human TSH (a final concentration of 50 ng/mL, R&D Systems, Inc.) was added, and incubation was performed at 37°C for 1 hour. The supernatant was removed, a Lysis and Detection Buffer 2 (Cisbio) was added, and incubation was performed at room temperature for 1 hour to prepare a cell lysate. According to the instruction manual of a cAMP Gs HiRange kit (Cisbio), the cell lysate, d2-labeled cAMP and anti-cAMP Europium Cryptate labeled antibodies (Cisbio) were reacted in a 384-well white microplate. Then, a fluorescence intensity ratio (measurement wavelength 665 nm/620 nm) was measured using a multi-plate reader (PHERAstar FSX, BMG LABTECH Japan). The fluorescence intensity ratio of each sample was converted to a cAMP content using a standard curve. The cAMP content was converted as a percentage of the control value to calculate a cAMP production rate. The cAMP production rate was plotted against the test compound concentration using Prism (Graph Pad Software Inc.) to calculate the IC50 value. In the tables, IC50<3.0 µM was indicated as A, and 3.0 µM≤IC50<30 µM was indicated as B. If activity was observed but the IC50 value could not be calculated, it was indicated as C.
The compound `Cc1sc2c(c1Cc1cc(F)ccc1Cl)N(C)C(=O)[C@H](NC(N)=O)C2` [Example 38, (R)-1-(3-(2-chloro-5-fluorobenzyl)-2,4-dimethyl-5-oxo-4,5,6,7-tetrahydrothieno[3,2-b]pyridin-6-yl)urea] had a pIC50 of more than 5.52.
Still for that read-out and setting: next, `CN1C(=O)[C@H](NC(N)=O)Cc2scc(Cc3cc(F)ccc3Cl)c21` [Example 37, (R)-1-(3-(2-chloro-5-fluorobenzyl)-4-methyl-5-oxo-4,5,6,7-tetrahydrothieno[3,2-b]pyridine-6-yl)urea]: more than 5.52.
In the case of `NC(=O)NC1Cc2cccc(Oc3cc(F)ccc3Cl)c2-n2ccnc21` (stereo not drawn) [Example 28, 1-(9-(2-chloro-5-fluorophenoxy)-4,5-dihydroimidazo[1,2-a]quinoline-4-yl)urea], the pIC50 was 4.52 to 5.52.
Compound `CC(c1ccccc1)c1cccc2c1N(C)C(=O)N(CC(N)=O)C2` (stereo not drawn) [Example 30, 2-(1-methyl-2-oxo-8-(1-phenylethyl)-1,4-dihydroquinazoline-3(2H)-yl)acetamide] gave a negative logarithm of the IC50 (pIC50) of less than 4.52.
Turning to `CN1C(=O)[C@H](NC(N)=O)Cc2sc(Br)c(Cc3cc(F)ccc3Cl)c21` [Example 39, (R)-1-(2-bromo-3-(2-chloro-5-fluorobenzyl)-4-methyl-5-oxo-4,5,6,7-tetrahydrothieno[3,2-b]pyridin-6-yl)urea], the pIC50 is more than 5.52.
`CC1(c2ccccc2)CCN2C(=O)[C@H](NC(N)=O)Cc3cccc1c32` (stereo partly drawn) [Example 16, 1-((2R)-7-methyl-3-oxo-7-phenyl-2,3,6,7-tetrahydro-1H,5H-pyrido[3,2,1-ij]quinoline-2-yl)ur ea] showed a negative logarithm of the IC50 (pIC50) of 4.52 to 5.52.
Take `CN1C(=O)C(NC(N)=O)Cc2cc(NC(=O)OC3(C)CC3)cc(Oc3cccc(C(F)(F)F)n3)c21` (stereo not drawn) [Example 8, 1-methylcyclopropyl (1-methyl-2-oxo-8-((6-(trifluoromethyl)pyridin-2-yl)oxy)-3-ureido-1,2,3,4-tetrahydroquinoline-6-yl)carbamate]: the pIC50 is more than 5.52.
Compound `CN1C(=O)C(C(N)=O)Cc2cc(NC(=O)OC3CCCC3)cc(Oc3ccccc3)c21` (stereo not drawn) [Example 1, cyclopentyl (3-carbamoyl-1-methyl-2-oxo-8-phenoxy-1,2,3,4-tetrahydroquinoline-6-yl)carbamate] showed a pIC50 of 4.52 to 5.52.
Consider `CN1C(=O)[C@H](NC(N)=O)Cc2cccc(CCc3ccccc3)c21` [Example 35, (R)-1-(1-methyl-2-oxo-8-phenethyl-1,2,3,4-tetrahydroquinoline-3-yl)urea], for which the pIC50 is 4.52 to 5.52.
`Cc1cnc2n1-c1c(cccc1Oc1cc(F)ccc1Cl)CC2NC(N)=O` (stereo not drawn) [Example 29, 1-(9-(2-chloro-5-fluorophenoxy)-1-methyl-4,5-dihydroimidazo[1,2-a]quinolin-4-yl)urea]: the pIC50 was 4.52 to 5.52.
`CN1C(=O)C(NC(N)=O)Cc2scc(C(=O)c3cc(F)ccc3Cl)c21` (stereo not drawn) [Example 42, 1-(3-(2-chloro-5-fluorobenzoyl)-4-methyl-5-oxo-4,5,6,7-tetrahydrothieno[3,2-b]pyridin-6-yl) urea] gave a pIC50 of more than 5.52.
With `CN1C(=O)[C@H](NS(N)(=O)=O)Cc2cccc(Oc3cc(F)ccc3Cl)c21` [Example 23], the pIC50 was more than 5.52.
Take `CN1C(=O)C(NC(N)=O)Cc2cc(NC(=O)OCC3CC3)cc(Oc3cccc(C(F)(F)F)n3)c21` (stereo not drawn) [Example 7, cyclopropylmethyl (1-methyl-2-oxo-8-((6-(trifluoromethyl)pyridin-2-yl)oxy)-3-ureido-1,2,3,4-tetrahydroquinoline-6-yl)carbamate]: the pIC50 was more than 5.52.

Values taken from patent publication EP4818159A1 (Kissei Pharmaceutical Co., Ltd., priority 2023, dated 2025).
